Test results taken from PubChem BioAssay (NCI).
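Protocol summary: plate cells (96-well), add compound at 5 concentrations, incubate 48 h, interpolate endpoints linearly. TGI: concentration producing complete growth inhibition.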 Where a SMILES comes first, the peptide text is derived from it. Square brackets hold non-standard residues; d marks the D form. Peptide text beside a SMILES is read from it. [ ]: non-standard residue; d: D form. The star is where a group is joined. ξ: configuration not given here. Phe(4-NO2) = N[CH](Cc1ccc([N+](=O)[O-])cc1)C(=O)O; ξPhe(4-NO2) = NC(Cc1ccc([N+](=O)[O-])cc1)C(=O)O; Boc = CC(C)(C)OC(=O)*

Key:
Assay in all cases: NCI-60 cell line screen, 48 h
HOP-62 NSCLC = test system: HOP-62 NSCLC
A549 NSCLC = test system: A549 NSCLC
HCT-15 colon = test system: HCT-15 colon
UO-31 renal = test system: UO-31 renal
HCT-116 colon = test system: HCT-116 colon
SK-MEL-5 melanoma = test system: SK-MEL-5 melanoma
U251 CNS = test system: U251 CNS
OVCAR-4 ovarian = test system: OVCAR-4 ovarian
NCI-H460 lung = test system: NCI-H460 lung
RXF 393 renal = test system: RXF 393 renal

Row | Structure (SMILES) | TGI (HOP-62 NSCLC) [µM] | TGI (A549 NSCLC) [µM] | TGI (HCT-15 colon) [µM] | TGI (UO-31 renal) [µM] | TGI (HCT-116 colon) [µM] | TGI (SK-MEL-5 melanoma) [µM] | TGI (U251 CNS) [µM] | TGI (OVCAR-4 ovarian) [µM] | TGI (NCI-H460 lung) [µM] | TGI (RXF 393 renal) [µM]
1 | CCOC(OCC)[C@H](N)[C@@H](O)[C@@H](O)[C@H]1COC(C)(C)O1 | > 100 | > 100 | > 100 | > 100 | > 100 | > 100 | > 100 | > 100 | – | –
2 | C=C(C1=CC(=O)C(C)(C)O1)[C@@H]1CC=C([C@@H]2CC[C@H]3[C@@]2(C)CC[C@H]2C(C)(C)C(=O)[C@H](OC(=O)CC(C)(O)CC(=O)O)C[C@]32C)[C@H](O)O1 (stereo not given in full) | 35 | 40.3 | 24.9 | 26.3 | 24 | 24.4 | 25.2 | – | 40.7 | 17
3 | CCNC(=O)CNC(=O)C(Cc1ccc([N+](=O)[O-])cc1)NC(=O)OC(C)(C)C (stereo not given) (Boc-[ξPhe(4-NO2)]-Gly-NHEt) | > 100 | > 100 | > 100 | > 100 | > 100 | > 100 | > 100 | > 100 | > 100 | > 100
4 | N#CC1=C(S)N(C2OC(CO)C(O)C(O)C2O)C(c2ccccc2)=CC1c1cccs1 (stereo not given) | 57 | 45.6 | > 100 | > 100 | 75.7 | 31 | 51.4 | > 100 | 32.9 | 40
5 | Cc1cc(=O)n2nc(CSc3n[nH]c(=S)s3)sc2n1 | > 100 | > 100 | > 100 | > 100 | > 100 | > 100 | > 100 | > 100 | > 100 | > 100
6 | CC1(C)CN=C(Nc2ccc(F)c(Cl)c2)S1 | > 100 | > 100 | > 100 | > 100 | > 100 | > 100 | > 100 | > 100 | – | > 100
7 | N#Cc1c2ccc([N+](=O)[O-])cc2c(=O)n2c1sc1ccccc12 | – | 28.5 | > 100 | 72.7 | 38.8 | > 100 | 95.4 | 98.8 | > 100 | –
8 | COC(=O)CCC(NC(=O)C(CCC(=O)OC)NC(=O)C(CCC(=O)OC)NC(=O)C(CCC(=O)OC)NC(=O)C(CCC(=O)OC)NC(=O)C(Cc1ccc([N+](=O)[O-])cc1)NC(=O)C(CCC(=O)OC)NC(=O)C(CCC(=O)OC)NC(=O)C(CCC(=O)OC)NC(=O)C(CCC(=O)OC)NC(=O)C(CCC(=O)OC)NC(C)=O)C(N)=O (stereo not given) (Ac-E(OMe)E(OMe)E(OMe)E(OMe)E(OMe)[Phe(4-NO2)]E(OMe)E(OMe)E(OMe)E(OMe)E(OMe)-NH2; configuration not given here) | – | > 100 | – | > 100 | > 100 | > 100 | > 100 | > 100 | > 100 | > 100
9 | C/C(=N\Nc1nc2ccccc2o1)c1cc2ccccc2cn1 | 15.6 | 9.46 | > 20.3 | 0.271 | 15.8 | 22.5 | > 100 | 8.25 | > 100 | 4.87
10 | C=CCOC1OC(CS(=O)(=O)O)C(OC(C)=O)C(OC(C)=O)C1OC(C)=O (stereo not given) | > 100 | – | > 100 | > 100 | > 100 | > 100 | > 100 | > 100 | > 100 | > 100
11 | FC(F)(F)C1(c2ccccc2)SCc2nc3ccccc3n21 (stereo not given) | > 100 | > 100 | > 100 | > 100 | > 100 | > 100 | > 100 | > 100 | > 100 | > 100
12 | CN(C(=O)c1ccc(Cl)cc1)C(=S)N1CCN(c2ccccc2)CC1 | – | > 100 | > 100 | > 100 | – | > 100 | > 100 | > 100 | > 100 | > 100
13 | COc1ccc(Br)c(C=Nc2cccc3cc(OC)c(OC)cc23)c1 | > 100 | > 100 | 16.4 | 97.5 | 34.2 | > 94.9 | 12.1 | > 100 | > 100 | > 100
14 | COc1ccc2c(c1)OC1c3ccccc3OCC21 (stereo not given) | > 100 | – | > 100 | > 100 | > 100 | > 100 | > 100 | > 100 | > 100 | > 100
15 | O=c1oc2ccccc2n1CCCn1c(=O)oc2ccccc21 | > 100 | – | > 100 | – | > 100 | > 100 | > 100 | – | > 100 | > 100
16 | COC(=O)[C@]1(Cc2ccc3ccccc3c2)CCCCCCN1C(=O)c1ccccc1 | > 46.5 | > 100 | > 47.1 | > 39.9 | > 44.1 | > 100 | > 46.1 | 26 | > 50.2 | > 47.5
17 | CCNC1=C(NC(=O)CCl)C(=O)c2ccccc2C1=O | 30.2 | 99.6 | 33.6 | – | 33.7 | 30.3 | 35.9 | 30.7 | 57.4 | 30.6
18 | CSS(C)(=O)=O | > 100 | > 100 | 58.8 | 52.1 | > 100 | > 100 | > 100 | 64.3 | > 100 | 59.6
19 | ClCCc1ccccc1CC1=NCCc2ccccc21 | > 100 | > 100 | > 100 | 38.3 | > 100 | 47.9 | > 100 | > 100 | 62.7 | 61.8
20 | CC1=CC(=O)/C(=C/N2C(=O)CNC2=S)C(=O)O1 | > 100 | > 100 | > 100 | > 100 | > 100 | > 100 | > 100 | > 100 | > 100 | –
21 | CCOc1cc(/C=C2\N=C(c3ccccc3)N(c3nc4ccccc4s3)C2=O)ccc1O | > 100 | – | 82.5 | > 100 | > 100 | 41.4 | > 100 | > 100 | > 100 | > 100
22 | C=CCN(c1cc(OC)c2c(c1[N+](=O)[O-])C(C)(SC)C(=O)N2)S(C)(=O)=O (stereo not given) | – | > 100 | > 100 | > 100 | > 100 | > 100 | > 100 | > 100 | > 100 | –
